Data published in ChEMBL document CHEMBL1201862, “PubChem BioAssay data set” (2004).
Activity calls are given as the source filed them.

Assays:
[1] = biological target: T1, Heat shock factor protein 1 (Mus musculus, UniProt P38532); test: HSF1 potentiators in luciferase reporter cells, confirmation, cell-based, NIH3T3, luminescence, dose retest (AID 435004); type: functional;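 note: stress induced by proteasome inhibitor MG132 added 30 min after compound; luciferase reporter driven by HSF1 response element in NIH3T3 cells; actives raise luminescence as potentiators of the MG132 stress response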
T1 sequence (P38532 whole entry): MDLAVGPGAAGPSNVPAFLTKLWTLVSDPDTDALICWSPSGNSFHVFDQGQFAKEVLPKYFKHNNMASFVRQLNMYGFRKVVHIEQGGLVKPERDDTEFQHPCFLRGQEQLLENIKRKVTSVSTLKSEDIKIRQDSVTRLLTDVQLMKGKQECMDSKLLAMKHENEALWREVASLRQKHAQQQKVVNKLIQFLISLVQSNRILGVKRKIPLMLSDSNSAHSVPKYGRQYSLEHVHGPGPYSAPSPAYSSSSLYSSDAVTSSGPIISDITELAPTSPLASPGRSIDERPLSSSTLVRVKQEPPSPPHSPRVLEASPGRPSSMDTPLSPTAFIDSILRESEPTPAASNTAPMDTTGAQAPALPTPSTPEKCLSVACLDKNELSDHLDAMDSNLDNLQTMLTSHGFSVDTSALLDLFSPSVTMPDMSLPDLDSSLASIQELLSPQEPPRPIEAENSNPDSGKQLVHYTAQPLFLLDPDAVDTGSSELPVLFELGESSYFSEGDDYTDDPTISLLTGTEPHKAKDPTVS

[2] = biological target: Eukaryotic translation initiation factor 4E (Mus musculus, UniProt P63073); test: eIF4E–eIF4G protein interaction inhibitors, dose response, biochemical, TR-FRET (AID 855); type: functional;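 note: potency for disrupting eIF4E binding to eIF4GI seen as loss of FRET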
[3] = cytotoxicity toward NIH3T3 fibroblasts, dose response, counter-screen, cell-based, ATP luminescence, mouse fibroblasts (AID 2010); type: functional;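 note: cells exposed to compound for about 90 hours before reading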
[4] = inhibitors of intracellular T. cruzi replication, confirmation, NIH3T3 host cells, beta-gal luminescence (AID 2044); type: functional, cell-based;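 note: intracellular parasites grown in NIH/3T3 mouse fibroblasts as host cells; luminescent beta-galactosidase reporter signal from transgenic T. cruzi replicating inside host cells; inhibitors lower the luminescence signal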
cells [5] = test: cells
cells [6] = type: functional, cell-based
cells [7] = type: functional, cell-based; remark: listed apart in the source
cells [8] = test: cells; remark: listed apart in the source
Vero [9] = test: cells; type: functional, cell-based; settings: Chlorocebus sabaeus
[10] = HEp-2 cell cytotoxicity, dose response, cytotoxicity control for RSV inhibitor project, HTS (AID 2410); type: functional; settings: human respiratory syncytial virus
[11] = Vero E6 cell cytotoxicity, dose response, cytotoxicity control for non-replicating M. tuberculosis project, secondary assay (AID 492998); type: functional, VeroE6; settings: Vero C1008
[12] = THP-1 cell cytotoxicity, dose response, cytotoxicity control for non-replicating M. tuberculosis project (AID 489025); type: functional
CAAX prenyl protease 2 = biological target: T2, CAAX prenyl protease 2 (Saccharomyces cerevisiae S288c, UniProt Q03530); type: biochemical
T2 sequence (Q03530 whole entry): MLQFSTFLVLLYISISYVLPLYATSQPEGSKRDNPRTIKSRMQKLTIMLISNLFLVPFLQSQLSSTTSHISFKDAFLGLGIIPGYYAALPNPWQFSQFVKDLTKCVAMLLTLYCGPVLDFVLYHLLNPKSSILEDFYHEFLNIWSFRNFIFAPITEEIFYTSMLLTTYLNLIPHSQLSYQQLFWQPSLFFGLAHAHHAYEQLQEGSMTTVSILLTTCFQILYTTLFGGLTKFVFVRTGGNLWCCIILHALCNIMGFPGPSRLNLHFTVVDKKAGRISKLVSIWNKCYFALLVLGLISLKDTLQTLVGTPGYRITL

[13] = HepG2 cell cytotoxicity, dose response, cytotoxicity control for non-replicating M. tuberculosis project (AID 489018); type: functional; settings: Mycobacterium tuberculosis
cells [14] = type: functional
[15] = biological target: DNA dC->dU-editing enzyme APOBEC-3A (Homo sapiens, UniProt P31941); test: APOBEC3A DNA deaminase inhibitors, dose response, biochemical (AID 504722); type: functional
[16] = biological target: DNA dC->dU-editing enzyme APOBEC-3G (Homo sapiens, UniProt Q9HC16); test: Dose Response confirmation of small molecule APOBEC3G DNA Deaminase Inhibitors via a fluorescence-based single-stranded DNA deaminase assay. [Related pubchem assays (depositor defined):AID493012, AID493028]; type: functional
Vero [17] = test: cells; type: functional; settings: Chlorocebus sabaeus
[18] = biological target: T3, Corticotropin-releasing factor receptor 2/Corticotropin-releasing factor-binding protein (Homo sapiens, UniProt P24387+Q13324); test: Dose Response confirmation of uHTS hits for small molecule antagonists of the CRF-binding protein and CRF-R2 receptor complex.; type: functional; settings: read-out: IC50_Mean
T3 sequence (Q13324 whole entry): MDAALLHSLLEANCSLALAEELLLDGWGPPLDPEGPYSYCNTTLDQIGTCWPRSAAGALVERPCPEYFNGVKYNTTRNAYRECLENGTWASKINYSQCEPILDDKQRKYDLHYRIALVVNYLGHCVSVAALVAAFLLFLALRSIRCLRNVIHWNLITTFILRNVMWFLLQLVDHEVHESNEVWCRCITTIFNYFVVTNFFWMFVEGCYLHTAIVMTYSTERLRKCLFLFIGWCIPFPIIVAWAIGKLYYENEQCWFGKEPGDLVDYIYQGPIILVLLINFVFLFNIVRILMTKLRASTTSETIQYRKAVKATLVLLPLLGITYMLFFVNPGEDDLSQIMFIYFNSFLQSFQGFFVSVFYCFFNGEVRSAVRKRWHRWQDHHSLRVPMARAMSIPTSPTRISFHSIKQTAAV
T3 sequence (P24387 whole entry): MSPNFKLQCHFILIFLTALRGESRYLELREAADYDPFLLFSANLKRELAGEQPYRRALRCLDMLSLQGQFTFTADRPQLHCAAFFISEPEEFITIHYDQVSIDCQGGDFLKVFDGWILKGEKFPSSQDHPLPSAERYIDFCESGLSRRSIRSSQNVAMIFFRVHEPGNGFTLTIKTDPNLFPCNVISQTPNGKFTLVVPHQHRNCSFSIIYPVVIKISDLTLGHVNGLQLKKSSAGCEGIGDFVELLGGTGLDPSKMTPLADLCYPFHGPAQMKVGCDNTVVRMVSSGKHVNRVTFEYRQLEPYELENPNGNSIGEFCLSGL

[19] = biological target: T3, Corticotropin-releasing factor receptor 2/Corticotropin-releasing factor-binding protein; test: activators of CRF receptor 2 with binding protein – uHTS hits, confirmation (AID 602473); type: functional; settings: read-out: EC50_Mean
[20] = biological target: T4, Rac GTPase-activating protein 1 (Homo sapiens, UniProt Q9H0H5); test: MgcRacGAP GTPase-activating activity inhibitors, confirmation, biochemical, ADP Hunter fluorescence, primary and confirmatory (AID 624330); type: functional
T4 sequence (Q9H0H5 whole entry): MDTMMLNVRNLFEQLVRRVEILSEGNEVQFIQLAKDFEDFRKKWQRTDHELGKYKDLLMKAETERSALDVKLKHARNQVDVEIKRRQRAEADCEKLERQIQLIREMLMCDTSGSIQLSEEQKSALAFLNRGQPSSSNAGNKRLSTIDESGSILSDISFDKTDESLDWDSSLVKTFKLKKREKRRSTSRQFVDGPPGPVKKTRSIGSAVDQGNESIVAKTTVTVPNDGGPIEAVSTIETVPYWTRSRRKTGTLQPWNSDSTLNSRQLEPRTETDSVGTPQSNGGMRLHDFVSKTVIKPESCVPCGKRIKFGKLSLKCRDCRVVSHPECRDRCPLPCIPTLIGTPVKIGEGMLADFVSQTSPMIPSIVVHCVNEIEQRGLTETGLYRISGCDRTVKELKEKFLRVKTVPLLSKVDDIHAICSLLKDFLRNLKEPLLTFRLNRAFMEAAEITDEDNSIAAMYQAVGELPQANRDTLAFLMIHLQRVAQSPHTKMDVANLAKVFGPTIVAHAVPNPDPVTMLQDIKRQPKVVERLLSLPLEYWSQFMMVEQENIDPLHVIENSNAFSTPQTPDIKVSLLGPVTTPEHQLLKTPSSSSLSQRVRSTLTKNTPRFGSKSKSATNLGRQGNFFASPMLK

Sequence of DNA dC->dU-editing enzyme APOBEC-3A (P31941 whole entry): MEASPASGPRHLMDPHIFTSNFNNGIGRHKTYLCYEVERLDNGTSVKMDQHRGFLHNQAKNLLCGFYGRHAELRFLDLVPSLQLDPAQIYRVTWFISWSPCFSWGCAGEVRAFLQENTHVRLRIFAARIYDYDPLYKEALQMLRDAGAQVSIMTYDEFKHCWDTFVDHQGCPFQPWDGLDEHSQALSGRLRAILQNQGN
Sequence of DNA dC->dU-editing enzyme APOBEC-3G (Q9HC16 whole entry): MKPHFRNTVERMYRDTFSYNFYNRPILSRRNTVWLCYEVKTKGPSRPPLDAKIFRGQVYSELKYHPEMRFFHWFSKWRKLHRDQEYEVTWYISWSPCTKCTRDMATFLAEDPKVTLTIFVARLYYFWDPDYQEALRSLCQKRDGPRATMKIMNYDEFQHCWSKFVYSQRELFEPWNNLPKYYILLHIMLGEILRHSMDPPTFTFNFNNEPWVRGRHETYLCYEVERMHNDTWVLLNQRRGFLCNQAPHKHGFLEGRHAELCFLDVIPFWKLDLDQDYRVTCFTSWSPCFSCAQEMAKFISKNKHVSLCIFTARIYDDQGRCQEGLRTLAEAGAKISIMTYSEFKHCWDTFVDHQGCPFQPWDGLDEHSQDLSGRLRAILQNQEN
Sequence of Eukaryotic translation initiation factor 4E (P63073 whole entry): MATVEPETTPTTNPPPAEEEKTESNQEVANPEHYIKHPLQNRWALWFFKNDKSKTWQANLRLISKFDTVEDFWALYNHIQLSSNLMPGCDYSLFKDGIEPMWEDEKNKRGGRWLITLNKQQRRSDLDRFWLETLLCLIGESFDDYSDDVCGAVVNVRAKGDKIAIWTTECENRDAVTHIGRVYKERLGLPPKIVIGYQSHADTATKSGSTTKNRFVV

For `C=CCSc1nc(-c2ccc(OC)cc2)c(C#N)c(=O)n1CC=C`, the EC50 [1] was 12.7 µM (active) and the IC50 [2] was 50 µM (inactive).

With `CCCCN(C)Cc1c(C)nc2c(Cl)cccc2c1O` the EC50 [3] was > 60 µM (not active), the EC50 [4] was < 0.1 µM (active) and the EC50 (cells [5]) was 0.074 µM (active).

With `Cc1ccc(-n2nc3c(=O)n(CC(=O)NCCc4ccccc4C)nc(C)c3c2C)cc1` the EC50 (cells [6]) was > 29.9 µM (inactive) and the IC50 (cells [7]) was > 29.9 µM (inactive).

With `COCCn1c(SC(C)C(=O)Nc2ncc(Cl)cc2Cl)nc2ccccc21` (stereo not drawn) the IC50 (cells [8]) was 14.8 µM (active), the IC50 (Vero [9]) was 8.99 µM (active) and the CC50 [10] was 25.5 µM (active).

With `CCOc1ccc(N2C(=O)C(CC(=O)Nc3ccccc3)N(Cc3ccccn3)C2=S)cc1` (stereo not drawn) the IC50 (cells [8]) was 5 µM (active) and the CC50 [10] was 33.6 µM (active).

With `CCOC(=O)Nc1ccc2c(c1)N(C(=O)CCN1CCOCC1)c1ccccc1[S+]2[O-]` (stereo not drawn) the CC50 [11] was > 20 µM (active), the CC50 [12] was 26.7 µM (active) and the EC50 [1] was > 260 µM (inactive).

With `CC(C)Cc1ccc(CN2CCCC(NC(=O)c3nn(C)c(=O)c4ccccc34)C2)cc1` (stereo not drawn) the EC50 [3] was 8.66 µM (active), the EC50 [4] was < 0.1 µM (active) and the EC50 (cells [5]) was 0.021 µM (active).

In the case of `S=C(NCCc1ccccc1)N1CCn2cccc2C1c1cccnc1` (stereo not drawn), the EC50 [3] is reported as > 60 µM (not active), the EC50 [4] is reported as < 0.1 µM (active) and the EC50 (cells [5]) is reported as 0.112 µM (active).

With `CC(C)(CO)CNC1CCCN(C2Cc3ccccc3C2)C1` (stereo not drawn) the EC50 [3] was 10.5 µM (active), the EC50 [4] was < 0.1 µM (active) and the EC50 (cells [5]) was 0.12 µM (active).

For `O=C(Nc1ccc(Cl)c([N+](=O)[O-])c1)C(Sc1ccccc1)c1ccccc1` (stereo not drawn), the EC50 [3] was > 60 µM (inconclusive), the AC50 (CAAX prenyl protease 2) was 7.77 µM (active) and the EC50 [4] was 1.45 µM (active).

With `Cc1cc(C[n+]2cc(Cl)ccc2N)c2ncccc2c1` the IC50 (cells [8]) was 35.7 µM (active) and the CC50 [10] was > 50 µM (active).

With `CCOC(=O)Cc1csc(NC(=O)c2c(O)c3ccccc3n(CCC(C)C)c2=O)n1` the CC50 [13] was > 20 µM (active), the IC50 (cells [14]) was 2.08 µM (active) and the CC50 [11] was 8.56 µM (active). The CC50 [12] was 15.2 µM (active).

In the case of `Nn1c(Cc2cccc3ccccc23)n[nH]c1=S`, the IC50 [15] is reported as > 100 µM (inactive) and the IC50 [16] is reported as 2.94 µM (active).

In the case of `COc1cc2c(cc1OC)CN(C(=O)c1cccc(S(=O)(=O)N3CCc4ccccc43)c1)CC2`, the IC50 (cells [8]) is reported as 45.9 µM (active), the IC50 (Vero [9]) is reported as 19.5 µM (active) and the CC50 [10] is reported as 18.7 µM (active). The CC50 (Vero [17]) was > 25 µM (active).

For `CCn1c(SC)nnc1-c1sc2cc(Cl)ccc2c1Cl`, the IC50 (cells [8]) was 9.26 µM (active) and the CC50 [10] was 11.2 µM (active).

For `Cn1c(S)nnc1-c1csc(-c2ccccc2)n1`, the IC50 [15] was > 100 µM (inactive) and the IC50 [16] was 3.06 µM (active).

In the case of `COc1ccccc1-c1nnc(NC(=O)c2ccc3ncsc3c2)o1`, the CC50 [13] is reported as > 20 µM (active), the IC50 (cells [14]) is reported as 7.75 µM (active) and the CC50 [11] is reported as 10.3 µM (active). The CC50 [12] was > 40 µM (active).

With `CCOC(=O)[C@@H]1[C@H]2COc3ccc(Br)cc3[C@@H]2N2C(=O)N(c3cccc(C)c3)C(=O)[C@]12C` the AC50 (CAAX prenyl protease 2) was 4.52 µM (active).

For `Cc1cc(O)nc(SCC(=O)NCCc2ccccc2)n1`, the EC50 (cells [6]) was > 29.9 µM (inactive) and the IC50 (cells [7]) was > 29.9 µM (inactive).

With `O=C(CNc1ccccc1)N/N=C/c1ccc([N+](=O)[O-])o1` the EC50 [3] was > 60 µM (not active), the IC50 [18] was > 47.1 µM (inactive) and the EC50 [19] was > 53 µM (inactive). The EC50 [4] was < 0.1 µM (active) and the EC50 (cells [5]) was 0.091 µM (active).

For `C/C(=N\NC(=O)COc1cccc(C)c1)c1ccc2ccccc2c1O`, the CC50 [13] was 19.1 µM (active), the CC50 [11] was 16.5 µM (active) and the CC50 [12] was 8.95 µM (active).

For `Cc1cc(-c2nnc(S)n2/N=C/c2ccccc2[N+](=O)[O-])[nH]n1`, the IC50 [15] was > 100 µM (inactive), the IC50 [20] was 107 µM (active) and the IC50 [16] was 6.21 µM (active).

For `CCc1nnc(S)n1/N=C/c1ccc(N(CC)CC)cc1`, the IC50 [15] was > 100 µM (inactive) and the IC50 [16] was 6.69 µM (active).
